Each structure is given as a SMILES string. Where a name gives a salt, the structure may show the parent alone.

This test deals with T1, hS1P1 receptor (Homo sapiens, UniProt P21453).
T1 construct: host or cells: U2OS
Description: hS1P1 receptor internalization assay (cell imaging-based, hS1P1-eGFP U2OS cells). The conditions noted are these: U2OS cell line expressing hS1P1-eGFP, compounds incubated at 37° C. for one hour; for Emax: 1 h, efficacy (Max), read-out: hS1P1 Receptor Internalization (biolimaging) Max (%); for EC50: GFP-containing endosomes per cell (ArrayScan), read-out: hS1P1 Receptor Internalization (bioimaging) EC50 IP. Here is the method: The activity of compounds of the invention was determined by a cell imaging-based assay measuring the degree of hS1P1 receptor internalization and a Ca^2+ mobilization assay measuring the level of S1P receptor activation. The receptor internalization assay was employed to determine the potency and efficacy of compounds on hS1P1 receptor, while Ca^2+ mobilization assay was used to determine selectivity among different S1P receptors and activity on S1P receptors from species such as rat, dog, and cyno. The hS1P1 receptor internalization assay was performed using a U2OS cell line expressing hS1P1-eGFP chimeric protein (Thermo Scientific, Soeborg, Denmark). Upon compound treatment, the hS1P1 receptor was internalized in cytoplasma and formed GFP-containing-endosomes. This event was detected by an automated microscope, ArrayScan (Thermo Scientific Cellomics, Pittsburg), and the degree of receptor internalization is quantitated by counting green fluorescent GFP-containing endosomes per cell. In this assay, hS1P1-eGFP expressing U2OS cells were starved in serum free media for two hours prior to compound treatment. Then compounds were incubated with the starved cells at 37° C. for one hour. Subsequently, compound-treated cells were fixed using 4% formaldehyde, and the nuclei were stained using Hoechst. Then the cells were imaged in ArrayScan. The potency and efficacy of the compounds were determined by plotting the number of green fluorescent GFP-containing endosomes per cell against corresponding compound concentration.

T1 sequence (P21453 whole entry): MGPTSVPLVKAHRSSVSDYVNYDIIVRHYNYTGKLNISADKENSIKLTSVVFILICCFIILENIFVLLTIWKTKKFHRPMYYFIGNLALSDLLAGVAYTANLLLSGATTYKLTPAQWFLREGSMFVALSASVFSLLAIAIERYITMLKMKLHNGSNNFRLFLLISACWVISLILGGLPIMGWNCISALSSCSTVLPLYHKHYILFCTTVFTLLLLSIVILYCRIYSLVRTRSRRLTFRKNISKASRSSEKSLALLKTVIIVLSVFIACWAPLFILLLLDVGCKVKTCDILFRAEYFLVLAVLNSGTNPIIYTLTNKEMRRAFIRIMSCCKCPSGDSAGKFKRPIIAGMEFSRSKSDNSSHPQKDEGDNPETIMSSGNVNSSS

In general, EC50 refers to the concentration giving half of the maximal effect. For the compound `NC(CO)(CCc1ccc(-c2nc3ccc(C4(c5ccccc5)CC4)nc3s2)c(F)c1)COP(=O)(O)O` (racemic) [Example 43, (rac)-2-amino-4-(3-fluoro-4-(5-(1-phenylcyclopropyl)thiazolo[5,4-b]pyridine-2-yl)phenyl)-2-(hydroxymethyl)butyl dihydrogen phosphate], the Emax was found to be 122% and the EC50 came to 0.3 nM.
Take `O=C(O)C1CN(Cc2ccc(-c3nc4ccc(C5(c6ccccc6)CC5)nc4s3)c(F)c2)C1` [Example 1, 1-((3-fluoro-4-(5-(1-phenylcyclopropyl)thiazolo[5,4-b]pyridin-2-yl)-phenyl)methyl)azetidine-3-carboxylic acid]: the Emax worked out at 98% and the EC50 is 2.5 nM.
Take `O=C(O)C1(F)CN(Cc2ccc(-c3nc4ccc(C5(c6ccccc6)CC5)nc4s3)c(F)c2)C1` [Example 4, 3-fluoro-1-((3-fluoro-4-(5-(1-phenylcyclopropyl)thiazolo[5,4-b]pyridine-2-yl)phenyl)methyl)azetidine-3-carboxylic acid hydrochloride]: the Emax is 121% and the EC50 came out at 1.2 nM.
Regarding `O=C(O)C1CN(Cc2ccc(-c3nc4ccc(C5(c6ccccc6)CC=CC5)nc4s3)c(F)c2)C1` [Example 5, 1-((3-fluoro-4-(5-(1-phenylcyclopent-3-enyl)thiazolo[5,4-b]pyridine-2-yl)phenyl)methyl)azetidine-3-carboxylic acid], the Emax came out at 90% and the EC50 worked out at 130 nM.
Turning to `O=C(O)C1CN(Cc2ccc(-c3nc4ccc(C5(c6ccccc6)CCCCC5)nc4s3)c(F)c2)C1` [Example 7, 1-((3-fluoro-4-(5-(1-phenylcyclohexyl)thiazolo[5,4-b]pyridine-2-yl)-phenyl)methyl)azetidine-3-carboxylic acid], the Emax was found to be 108% and the EC50 was determined as 32.6 nM.
With `O=C(O)C1CN(Cc2ccc(-c3nc4ccc(C5(c6ccccc6)CCO5)nc4s3)c(F)c2)C1` (stereo not shown) [Example 9, 1-((3-fluoro-4-(5-(2-phenyloxetan-2-yl)thiazolo[5,4-b]pyridine-2-yl)-phenyl)methyl)azetidine-3-carboxylic acid], the Emax is 144% and the EC50 turned out to be 28.6 nM.
The matching figures for `O=C(O)C1CN(Cc2ccc(-c3nc4ccc(C5(c6ccccc6)CC5)cc4s3)c(F)c2)C1` [Example 10, 1-((3-fluoro-4-(6-(1-phenylcyclopropyl)benzo[d]thiazol-2-yl)phenyl)-methyl)azetidine-3-carboxylic acid hydrochloride]: 97% and 42 nM.
The matching figures for `O=C(O)CCNCc1ccc(-c2nc3ccc(C4(c5ccccc5)CC4)nc3s2)c(F)c1` [Example 12, 3-((3-fluoro-4-(5-(1-phenylcyclopropyl)thiazolo[5,4-b]pyridine-2-yl)-phenyl)methylamino)propanoic acid hydrochloride]: 101% and 2 nM.
Take `O=C(O)CCNC(=O)c1ccc(-c2nc3ccc(C4(c5ccccc5)CC4)nc3s2)c(F)c1` [Example 14, 3-(3-fluoro-4-(5-(1-phenylcyclopropyl)thiazolo[5,4-b]pyridine-2-yl)-benzamido)propanoic acid]: the Emax is 66% and the 50% effective concentration (EC50) was found to be 20.6 nM.
For `Cc1cc(-c2nc3ccc(C4(c5ccccc5)CC4)nc3s2)cc(C)c1CN1CC(C(=O)O)C1` [Example 17, 1-((2,6-dimethyl-4-(5-(1-phenylcyclopropyl)thiazolo[5,4-b]-pyridin-2-yl)phenyl)methyl)azetidine-3-carboxylic acid], the Emax was 148% and the EC50 worked out at 21 nM.
In the case of `Cc1cc(CN2CC(C(=O)O)C2)ccc1-c1nc2ccc(C3(c4ccccc4)CC3)nc2s1` [Example 19, 1-((3-methyl-4-(5-(1-phenylcyclopropyl)thiazolo[5,4-b]pyridine-2-yl)phenyl)methyl)azetidine-3-carboxylic acid], the Emax turned out to be 121% and the EC50 is 1.4 nM.

The values above are taken from patent US7842685B2, “S1P1 receptor agonists and use thereof” (Amgen Inc., priority 2008, dated 2010).
